33 compounds from ChEMBL document CHEMBL3351952, “The antimicrobial activity of mono-, bis-, tris-, and tetracationic amphiphiles derived from simple polyamine platforms” (2014) can be followed below.

What all share (type): functional
For one assay, the system named is Enterococcus faecalis. Description: Antimicrobial activity against Enterococcus faecalis OG1RF after 72 hrs by broth microdilution method. Background: In broth dilution the organism is exposed to a series of concentrations in liquid medium.
In another assay the test system is Staphylococcus aureus. The assay can be described thus: Antimicrobial activity against Staphylococcus aureus SH1000 after 72 hrs by broth microdilution method. The following applies: SH1000, 72 h.
The test system of the next assay is Escherichia coli. Description: Antimicrobial activity against Escherichia coli MC4100 after 72 hrs by broth microdilution method. Particulars: MC4100, 72 h.
Another assay has as its system Pseudomonas aeruginosa. The assay can be described thus: Antimicrobial activity against wild-type Pseudomonas aeruginosa PAO1 after 72 hrs by broth microdilution method. Particulars: PAO1, 72 h.

Some results are limits rather than exact numbers.

On to `CCCCCCCCCCCC[N+](C)(C)CCN(C)CCN(C)CC[N+](C)(C)CCCCCCCCCCCC`, for which the minimum inhibitory concentration (MIC) in the assay on Enterococcus faecalis worked out at 1 µM; against Staphylococcus aureus, 1 µM; with Escherichia coli it was 1 µM; with Pseudomonas aeruginosa it was 4 µM.
On to `CCCCCCCCCC[N+](C)(C)CCCCC[N+](C)(C)CCCCCCCCCC`, for which the minimal inhibitory concentration (MIC) is 4 µM against Enterococcus faecalis, 2 µM against Staphylococcus aureus, 8 µM with Escherichia coli and 63 µM against Pseudomonas aeruginosa.
For `CCCCCCCCCCCC[N+](C)(C)CCCCC[N+](C)(C)CCCCCCCCCCCC`, in that order: 1 µM, 2 µM, 1 µM and 2 µM.
The corresponding values for `CCCCCCCCCCCCCC[N+](C)(C)CCCCC[N+](C)(C)CCCCCCCCCCCCCC` are 1 µM, 1 µM, 4 µM and 16 µM.
For `CCCCCCCCCCCCCCCC[N+](C)(C)CCCCC[N+](C)(C)CCCCCCCCCCCCCCCC`, in that order: 2 µM, 2 µM, 16 µM and 32 µM.
With `CCCCCCCCCC[N+](C)(C)CCN(C)CC[N+](C)(C)CCCCCCCCCC`, the minimal inhibitory concentration (MIC) in the assay with Enterococcus faecalis turned out to be 8 µM; in the assay on Staphylococcus aureus, 2 µM; in the assay with Escherichia coli, 8 µM; against Pseudomonas aeruginosa, 63 µM.
`CCCCCCCCCCC[N+](C)(C)CCN(C)CC[N+](C)(C)CCCCCCCCCCC`: the MIC against Enterococcus faecalis turned out to be 2 µM; against Staphylococcus aureus, 2 µM; against Escherichia coli, 2 µM; against Pseudomonas aeruginosa, 8 µM.
In the case of `CCCCCCCCCCCC[N+](C)(C)CCN(C)CC[N+](C)(C)CCCCCCCCCCCC`, the MIC in the assay on Enterococcus faecalis was 1 µM; against Staphylococcus aureus it was 1 µM; in the assay with Escherichia coli it was 2 µM; with Pseudomonas aeruginosa it was 4 µM.
Consider `CCCCCCCCCCCCCC[N+](C)(C)CCN(C)CC[N+](C)(C)CCCCCCCCCCCCCC`, for which the minimum inhibitory concentration (MIC) was determined as 1 µM against Enterococcus faecalis, 2 µM with Staphylococcus aureus, 4 µM against Escherichia coli and 16 µM in the assay on Pseudomonas aeruginosa.
For `CCCCCCCCCCCCCCCC[N+](C)(C)CCN(C)CC[N+](C)(C)CCCCCCCCCCCCCCCC`, in that order: 2 µM, 4 µM, 16 µM and 32 µM.
The corresponding values for `CCCCCCCCCC[N+](C)(C)CC[N+](C)(C)CC[N+](C)(C)CCCCCCCCCC` are 8 µM, 2 µM, 8 µM and 63 µM.
The corresponding values for `CCCCCCCCCCC[N+](C)(C)CC[N+](C)(C)CC[N+](C)(C)CCCCCCCCCCC` are 2 µM, 2 µM, 4 µM and 8 µM.
Consider `CCCCCCCCCCCC[N+](C)(C)CC[N+](C)(C)CC[N+](C)(C)CCCCCCCCCCCC`, for which the MIC against Enterococcus faecalis is at most 60.2 µM; in the assay on Staphylococcus aureus, at most 60.2 µM; against Escherichia coli, 0.5 µM; against Pseudomonas aeruginosa, 1 µM.
As for `CCCCCCCCCCCCCC[N+](C)(C)CC[N+](C)(C)CC[N+](C)(C)CCCCCCCCCCCCCC`, the minimum inhibitory concentration (MIC) came out at 1 µM with Enterococcus faecalis, 1 µM with Staphylococcus aureus, 2 µM in the assay with Escherichia coli and 8 µM against Pseudomonas aeruginosa.
Turning to `C=CC[N+](C)(CC[N+](C)(C)CCCCCCCCCC)CC[N+](C)(C)CCCCCCCCCC`, the MIC with Enterococcus faecalis came to 4 µM; against Staphylococcus aureus, 2 µM; against Escherichia coli, 2 µM; in the assay on Pseudomonas aeruginosa, 63 µM.
For the compound `C=CC[N+](C)(CC[N+](C)(C)CCCCCCCCCCC)CC[N+](C)(C)CCCCCCCCCCC`, the minimal inhibitory concentration (MIC) against Enterococcus faecalis was 2 µM; with Staphylococcus aureus, 1 µM; against Escherichia coli it was 2 µM; with Pseudomonas aeruginosa it was 16 µM.
Take `C=CC[N+](C)(CC[N+](C)(C)CCCCCCCCCCCC)CC[N+](C)(C)CCCCCCCCCCCC`: the MIC came to 2 µM with Enterococcus faecalis, 2 µM in the assay with Staphylococcus aureus, 2 µM with Escherichia coli and 4 µM with Pseudomonas aeruginosa.
Regarding `C=CC[N+](C)(CC[N+](C)(C)CCCCCCCCCCCCCC)CC[N+](C)(C)CCCCCCCCCCCCCC`, the minimum inhibitory concentration (MIC) against Enterococcus faecalis was 2 µM; against Staphylococcus aureus, 2 µM; against Escherichia coli it was 2 µM; in the assay with Pseudomonas aeruginosa it was 8 µM.
As to `C=CC[N+](C)(CC[N+](C)(C)CCCCCCCCCCCCCCCC)CC[N+](C)(C)CCCCCCCCCCCCCCCC`, the MIC is 4 µM in the assay on Enterococcus faecalis, 4 µM against Staphylococcus aureus, 8 µM in the assay on Escherichia coli and 16 µM with Pseudomonas aeruginosa.
Turning to `CCCCCCCCCCCC[N+](C)(C)CCCCCCC[N+](C)(C)CCCCCCCCCCCC`, the MIC is 1 µM against Enterococcus faecalis, 1 µM with Staphylococcus aureus, 2 µM in the assay with Escherichia coli and 8 µM against Pseudomonas aeruginosa.
Regarding `CCCCCCCCCCCC[N+](C)(C)CCCN(C)CCC[N+](C)(C)CCCCCCCCCCCC`, the MIC against Enterococcus faecalis came out at 2 µM; against Staphylococcus aureus, 1 µM; against Escherichia coli, 1 µM; in the assay on Pseudomonas aeruginosa it was 4 µM.
With `CCCCCCCCCCCC[N+](C)(C)CCC[N+](C)(C)CCC[N+](C)(C)CCCCCCCCCCCC`, the minimal inhibitory concentration (MIC) amounted to 2 µM in the assay with Enterococcus faecalis, 1 µM against Staphylococcus aureus, 2 µM with Escherichia coli and 8 µM with Pseudomonas aeruginosa.
Turning to `C=CC[N+](C)(CCC[N+](C)(C)CCCCCCCCCCCC)CCC[N+](C)(C)CCCCCCCCCCCC`, the MIC in the assay on Enterococcus faecalis worked out at 2 µM; in the assay with Staphylococcus aureus it was 1 µM; with Escherichia coli it was 2 µM; with Pseudomonas aeruginosa it was 4 µM.
As for `CCCCCCCCCCCC[N+](C)(C)CCC[N+](C)(CCCC)CCC[N+](C)(C)CCCCCCCCCCCC`, the MIC came to 1 µM against Enterococcus faecalis, 1 µM in the assay on Staphylococcus aureus, 1 µM with Escherichia coli and 2 µM in the assay with Pseudomonas aeruginosa.
With `CCCCCCCCCCCC[N+](C)(C)CCC[N+](C)(CCC[N+](C)(C)CCCCCCCCCCCC)Cc1ccccc1`, the minimal inhibitory concentration (MIC) against Enterococcus faecalis was 1 µM; against Staphylococcus aureus, 1 µM; against Escherichia coli it was 1 µM; against Pseudomonas aeruginosa it was 2 µM.
As to `CCCCCCCCCCCC[N+](C)(C)CCC[N+](C)(CCC[N+](C)(C)CCCCCCCCCCCC)Cc1ccc(CCCCCCCC)cc1`, the MIC in the assay on Enterococcus faecalis was 1 µM; with Staphylococcus aureus it was 1 µM; in the assay with Escherichia coli, 1 µM; in the assay on Pseudomonas aeruginosa, 4 µM.
For `CCCCCCCCCCCC[N+](C)(C)CCC[N+](C)(CCCCCCCCCCCC)CCC[N+](C)(C)CCCCCCCCCCCC`, the MIC stood at 1 µM against Enterococcus faecalis, 0.5 µM in the assay on Staphylococcus aureus, 1 µM in the assay with Escherichia coli and 4 µM in the assay with Pseudomonas aeruginosa.
With `CCCCCCCCCCCC[N+](C)(C)CCN(C)CCN(C)CCN(C)C`, the minimal inhibitory concentration (MIC) is 8 µM against Enterococcus faecalis, 8 µM with Staphylococcus aureus, 8 µM in the assay on Escherichia coli and 32 µM against Pseudomonas aeruginosa.
For the compound `CCCCCCCCCCCCCC[N+](C)(C)CCN(C)CCN(C)CCN(C)C`, the MIC with Enterococcus faecalis turned out to be 16 µM; with Staphylococcus aureus, 16 µM; against Escherichia coli, 32 µM; with Pseudomonas aeruginosa it was 125 µM.
In the case of `CCCCCCCCCCCCCC[N+](C)(C)CCN(C)CCN(C)CC[N+](C)(C)CCCCCCCCCCCC`, the MIC against Enterococcus faecalis is 1 µM; in the assay with Staphylococcus aureus, 1 µM; in the assay on Escherichia coli, 2 µM; with Pseudomonas aeruginosa, 8 µM.
As to `CCCCCCCCCCCCCC[N+](C)(C)CCN(C)CCN(C)CC[N+](C)(C)CCCCCCCCCCCCCC`, the minimal inhibitory concentration (MIC) was found to be 1 µM in the assay on Enterococcus faecalis, 2 µM with Staphylococcus aureus, 2 µM against Escherichia coli and 16 µM in the assay with Pseudomonas aeruginosa.
Regarding `C=CC[N+](C)(CC[N+](C)(C)CCCCCCCCCCCC)CC[N+](C)(CC=C)CC[N+](C)(C)CCCCCCCCCCCC` (configuration not stated), the minimal inhibitory concentration (MIC) against Enterococcus faecalis was found to be 1 µM; with Staphylococcus aureus, 1 µM; against Escherichia coli, 1 µM; against Pseudomonas aeruginosa, 2 µM.
For `CCCCCCCCCCCC[N+](C)(C)Cc1ccccc1` [BENZODODECINIUM CHLORIDE], the MIC against Enterococcus faecalis stood at 8 µM; against Staphylococcus aureus, 8 µM; with Escherichia coli it was 32 µM; against Pseudomonas aeruginosa, 63 µM.

The term MIC denotes the lowest concentration found to suppress growth. Lower therefore signals inhibition by little substance.
